One assay deals with sigma 2 (σ-2) site (Homo sapiens, UniProt Q5BJF2). The settings on record: cited from earlier work.
The next assay relates to morphine dependence. The settings on record: cited from earlier work.
For assay [1], the system named is post-operative pain in rats (mechanical allodynia). The following applies: rat, in vivo.
In assay [2] the test system is post-operative pain in rats (thermal hyperalgesia). Description: Thermal hyperalgesia (Ugo Basile plantar test) after plantar incision, post-operative pain in rats. It is filed as in vivo, rat. The settings on record: given 3.5 h after surgery.
A further assay has as its system opioid analgesia. The settings on record: Chichenkov et al. 1985; cited from earlier work.

Chain of sigma 2 (σ-2) site (Q5BJF2 whole entry): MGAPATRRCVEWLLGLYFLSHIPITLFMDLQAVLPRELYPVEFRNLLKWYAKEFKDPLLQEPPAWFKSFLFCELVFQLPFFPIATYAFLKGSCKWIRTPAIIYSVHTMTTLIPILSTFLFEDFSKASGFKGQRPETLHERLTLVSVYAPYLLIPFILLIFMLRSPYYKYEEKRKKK

Consider SKF 10047, for which, at sigma 2 (σ-2) site, the “affinity for the sigma 2 site” value is “micromolar affinity”.

`COc1ccc(CCN2CCN(CCCc3ccccc3)CC2)cc1OC` [SA4503]: the “effect on addiction to morphine” value with morphine dependence (morphine-induced place preference, Nomura et al. 1999) is “modulatory effect on addiction to morphine”.

Take dehydroepiandrosterone sulfate [DHEA]: the “effect on development of morphine dependence” value in the assay on morphine dependence (Noda et al. 2001) is on record as “some capacity to attenuate the development of morphine dependence”.

`Cc1cc(OCCN2CCOCC2)nn1-c1ccc2ccccc2c1` [compound 63, 4-{2-[5-Methyl-1-(naphthalen-2-yl)-1H-pyrazol-3-yloxy]ethyl}morpholine]: in assay [1], the “effect on buprenorphine analgesia” value is “enhances buprenorphine analgesia”, the “effect on morphine analgesia” value was “enhances morphine analgesia”, the “effect on oxycodone analgesia” value was “enhances oxycodone analgesia” and the “effect on tapentadol analgesia” value is given as “enhances tapentadol analgesia”. The “effect on tramadol analgesia” value in assay [1] was “enhances tramadol analgesia”. Moreover, in assay [2] (compound 63 5, 10, 20, 40 mg/kg + tramadol 1.25 mg/kg), the “effect on tramadol analgesia” value is recorded as “enhances tramadol analgesia”. For the same molecule, the “effect on morphine analgesia” value in assay [2] (compound 63 10, 20, 40, 80 mg/kg + morphine 0.625 mg/kg) is listed as “enhances morphine analgesia”.

In the case of `O=C(CCCN1CCC(O)(c2ccc(Cl)cc2)CC1)c1ccc(F)cc1` [Haloperidol, haloperidol], in the assay with opioid analgesia, the “effect on activity of opioids and opiates (morphine, DADL, bremazocine)” value was “potentiates the activity of different opioids and opiates”.

The values above are taken from patent US9757358B2 (priority 2010, dated 2017).
